“Also recorded” adds a separate entry of the source. Where two headings read alike, the source gives them in different places. Where a SMILES comes first, the peptide text is derived from it. Bridges are numbered along the chain shown (N, C = ends).
Columns and labels:
[1] = biological target: T1, seprase (Homo sapiens, UniProt Q12884); assay: Prolyl dipeptidase activity of seprase, Gly-Pro-pNA substrate; conditions: for inhibition of the prolyl dipeptidase activity of seprase: Gly-Pro-pNA 2 mM, different concentrations of peptides; for inhibition of seprase: FIG. 1
T1 sequence (Q12884 1-760): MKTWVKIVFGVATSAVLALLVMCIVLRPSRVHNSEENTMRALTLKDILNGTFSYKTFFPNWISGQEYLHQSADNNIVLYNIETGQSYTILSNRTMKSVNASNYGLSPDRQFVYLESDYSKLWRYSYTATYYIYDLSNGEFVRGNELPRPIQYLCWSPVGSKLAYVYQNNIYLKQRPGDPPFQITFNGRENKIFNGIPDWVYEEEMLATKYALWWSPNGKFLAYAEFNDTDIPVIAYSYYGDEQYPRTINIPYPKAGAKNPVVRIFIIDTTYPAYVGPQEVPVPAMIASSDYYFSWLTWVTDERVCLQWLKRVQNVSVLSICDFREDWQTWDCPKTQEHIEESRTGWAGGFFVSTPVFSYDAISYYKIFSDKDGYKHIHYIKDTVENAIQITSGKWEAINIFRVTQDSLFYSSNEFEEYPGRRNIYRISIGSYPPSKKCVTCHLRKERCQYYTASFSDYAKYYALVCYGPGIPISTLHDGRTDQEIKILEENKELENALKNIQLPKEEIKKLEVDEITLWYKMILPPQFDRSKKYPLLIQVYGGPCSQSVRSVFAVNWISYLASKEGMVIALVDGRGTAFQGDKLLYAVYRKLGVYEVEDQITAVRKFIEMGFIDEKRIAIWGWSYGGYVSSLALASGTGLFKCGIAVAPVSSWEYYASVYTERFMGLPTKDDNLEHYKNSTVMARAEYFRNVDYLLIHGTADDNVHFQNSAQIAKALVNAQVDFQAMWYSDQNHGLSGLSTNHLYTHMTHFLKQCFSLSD

[2] = biological target: T1, seprase; assay: Gelatinolytic activity of seprase, soluble fluorescent DQ-gelatin assay; assay type: biochemical; set-up: Native seprase, which was isolated from LOX cells grown on type I collagen films according to previously described procedures; endogenous in cells; host or cells: LOX human amelanotic melanoma cells; WGA-enriched fraction, immuno-captured with mAb D8; conditions: DQ-gelatin 25 μg/ml, 37° C., 16 hours, FIG. 1B
[3] = tested on: LOX cells; assay: Peptide binding to seprase-expressing LOX cells (ELISA and immunofluorescence); assay type: cell-based, human
Protocol: (§1) It was also determined if synthetic peptides targeting seprase could bind seprase-expressing LOX cells but not seprase-negative tumor cells including the human melanoma cell line SKMEL-28.

[4] = tested on: SKMEL-28 cells; assay: Peptide binding to seprase-negative SKMEL-28 cells (ELISA and immunofluorescence); assay type: cell-based, human
Protocol: as §1

[5] = tested on: LOX cells; assay: Overall collagen degradation by cells, Bodipy FL C5 labelled type I collagen microtiter plate; assay type: cell-based, human; conditions: 16 hours, 37° C., FIG. 3A
Protocol: The assay involves coating 96-well microtiter plates with Bodipy FL C5 labelled type I collagen films. It allows direct measurement of collagen degradation by cells, as the release of fluorescent intensity is in proportion to the degree of collagen degradation. To prepare collagen films, collagen solution mixed with DMEM (1:4 v/v) was coated as a thin layer in each well of a 96-well microtiter plate, and incubated for 1 h at 37° C. to allow gel formation. Labeling of collagen films involved borate buffer, pH 8.3, containing 3 mg of BODIPY FL C5 (Molecular Probes) at 25° C. To determine collagen degradation by cells, LOX cells (10^4/well) were seeded in a 96-well microtiter plate pre-coated with Bodipy FL C5 labeled type I collagen, and incubated in the presence of different concentrations of inhibitors at 37° C. for 16 hours. The increase in fluorescence at 485 nm (excitation)/538 nm (emission) is proportional to the ability of cells to degrade fluorescently labeled collagen films. Change in fluorescent intensity was monitored with a fluorescence microtiter plate reader (Molecular Devices, Sunnyvale, Calif.).

[6] = tested on: GFP-LOX cells; assay: Melanoma growth and metastasis to lung and liver in nude mice co-inoculated with GFP-LOX cells; assay type: in vivo, NCR Nude mice; conditions: CDMWERVSRC 300 μM or control peptide 500 μM, 28 days
Protocol: Number of GFP-melanoma cells or micrometastases in lung (J) and liver (K) tissues freshly excised from animals was counted per 3×10^5 μm^2 under an epifluorescence microscope.
We next determined whether [sequence] […] GFP-tagged LOX cells, 2×10^5 cells/mouse, were co-inoculated subcutaneously with peptides into flanks of NCR Nude mice, and followed by daily injections of peptide solutions into sites 2 mm adjacent to tumors. […] GFP-tagged LOX cells, 2×10^5 cells suspended in 100 ml of serum-free DMEM, that were pre-incubated with [sequence] [SEQ ID NO: 3] (300 μM) or control peptides (500 μM) were injected subcutaneously into flanks of NCR Nude mice (female; Taconic Co., Germantown, N.Y.). In addition, [sequence] [SEQ ID NO: 3] (300 μM) and control peptides (500 μM) were daily injected into the subcutaneous tissue 2 mm adjacent to tumor sites. Total of 3 mice were used for each experimental or control group. Tumors were measured twice a week. After 28 days, mice were sacrificed by anesthetic overdose. Tissues including primary tumor, lung and liver were removed and examined for GFP tagged melanoma cells and micrometastases by epifluorescence microscopy, followed by enumeration and photography. Melanoma cells in lung and liver were calculated by counting number of GFP-melanoma cells or micrometastases in these tissues freshly excised from animals in a 3×10 μm^2 area in 10 different regions.

[7] = biological target: DPP4 (Homo sapiens, UniProt P27487); conditions: reported values; read-out: KiDPP4 of reported DPP4 competitive inhibitors; cited from earlier work
[8] = biological target: matrix metalloproteinase; conditions: supplier information; read-out: Ki of matrix metalloproteinase inhibitor; cited from earlier work
[9] = tested on: human ovarian tumor cells
[10] = tested on: Human ovarian cancer cells isolated from mouse ascites; assay: In vitro extracellular matrix degradation and ingestion assay on TRITC-type I collagen films; assay type: cell-based; conditions: at 1 mM, 16 to 24 hours
Protocol: It consists of seeding tumor cells on fluorescently labeled type I collagen films and determining the ability of tumor cells to degrade and ingest the fluorescently labeled extracellular matrix. Two inhibitors, H-Ile-Pro-NHO-PNB (DPP4-specific) and the cyclic peptide [sequence] [SEQ ID NO:3] (seprase-specific) were used. Human ovarian cancer cells isolated from mouse ascites as described in Example 7 were seeded on TRITC-type I collagen films.

[11] = tested on: LOX cells; assay: Cell viability, apoptosis and cell death assays on collagen films; assay type: cell-based; set-up: dose or concentration left out as unconfirmed
Protocol: In parallel to the assay assessing the overall collagen degradation by LOX cells described above (FIG. 3A), LOX cells grown on collagen films were determined for their physiological responses to peptide or other protease inhibitors in terms of cell viability (FIG. 3B), apoptosis (FIG. 3C) and cell death (FIG. 3D). Cell viability, apoptosis and cell death assays were performed using Molecular Probes (Eugene, Oreg.) Live/Dead Viability/Cytotoxicity kit and Vybrant Apoptosis Assay Kit #4 and followed the manufacturer's instruction. LOX cells (10^4/well) were cultured on a type I collagen coated 96-well microtiter plate in the presence of inhibitors at 37° C. overnight. After washing gently with PBS, dyes for the cell viability assay (Calcein Am, 2 mM, only stained live cells) and for the apoptosis assay (YO-PRO [a fluorescent nuclear dye], 0.25 mM, stained apoptotic cells; ethidium homodimer-1, 4 mM, stained dead cells) were added and incubated at 25° C. for 45 min. The fluorescence intensity was read at the wavelength of 485 nm/538 nm or 544 nm/612 nm. In the LIVE/DEAD Viability/Cytotoxicity Assay, high fluorescent intensity indicates high number of viable cells, whereas in the Vybrant Apoptosis Assay, high fluorescent intensity units indicate high number of apoptotic or dead cells.

Sequence of DPP4 (P27487 whole entry, species assumed): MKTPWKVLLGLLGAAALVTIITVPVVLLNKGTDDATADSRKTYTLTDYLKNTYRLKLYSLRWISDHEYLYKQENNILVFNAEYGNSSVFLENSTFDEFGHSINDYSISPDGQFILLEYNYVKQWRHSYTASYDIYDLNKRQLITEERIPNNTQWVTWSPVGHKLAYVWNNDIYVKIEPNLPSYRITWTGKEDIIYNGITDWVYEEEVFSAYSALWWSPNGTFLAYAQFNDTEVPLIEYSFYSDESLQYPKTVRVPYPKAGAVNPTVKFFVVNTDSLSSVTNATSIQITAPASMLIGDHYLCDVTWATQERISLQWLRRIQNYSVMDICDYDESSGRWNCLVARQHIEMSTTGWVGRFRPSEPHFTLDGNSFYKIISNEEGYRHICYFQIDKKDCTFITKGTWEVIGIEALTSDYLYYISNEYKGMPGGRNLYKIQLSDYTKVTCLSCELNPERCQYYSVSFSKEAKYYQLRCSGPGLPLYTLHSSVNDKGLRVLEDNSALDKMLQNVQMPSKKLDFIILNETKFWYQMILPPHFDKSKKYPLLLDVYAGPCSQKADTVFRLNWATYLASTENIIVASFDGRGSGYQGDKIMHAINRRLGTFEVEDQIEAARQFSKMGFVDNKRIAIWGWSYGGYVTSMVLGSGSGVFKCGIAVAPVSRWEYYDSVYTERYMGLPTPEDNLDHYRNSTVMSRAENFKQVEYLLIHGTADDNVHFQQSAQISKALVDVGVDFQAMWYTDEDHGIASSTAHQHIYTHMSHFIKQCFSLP

CCC(C)C(N)C(=O)N1CCSC1 (stereo not shown) [H-Ile-Thia]
inhibition of the prolyl dipeptidase activity of seprase ([1]; FIG. 1A): inhibit | Ki ([1]; read-out: Ki, prolyl dipeptidase activity of seprase, PBS pH 7.4, 37° C., 8.0 mM Gly-Pro-pNA, FIG. 1D): 100 nM | inhibition of the gelatinolytic activity of seprase [2]: did not inhibit

RKISASEFDRPLR [control peptide]
binding to LOX cells [3]: not | binding to SKMEL-28 cells [4]: did not bind

GRGTWN
inhibition of overall collagen degradation by LOX cells (words) [5]: did not | inhibition of the prolyl dipeptidase activity of seprase ([1]; FIG. 1A): no inhibition

YISGR [control peptide]
formation of liver micrometastases [6]: did not | formation of lung micrometastases [6]: did not | formation of LOX-derived human melanoma ([6]; co-inoculated s.c. and daily injections): did not | inhibition of the gelatinolytic activity of seprase [2]: do not

N[C@@H](CCC(=O)NCC(=O)NCC(=O)NCC(=O)NCC(=O)NCC(=O)O)C(=O)N1CCSC1 [H-Glu(Gly5)-Thia]
inhibition of the prolyl dipeptidase activity of seprase ([1]; FIG. 1A): inhibit | Ki [7]: 80 nM

DLDYLSKF
inhibition of seprase [1]: potent inhibitors | inhibition of the prolyl dipeptidase activity of seprase ([1]; FIG. 1A): inhibit

GGYR
inhibition of the prolyl dipeptidase activity of seprase ([1]; FIG. 1A): no inhibition

CC(C)(C)[C@H](NC(=O)[C@H](CCCc1ccc(Cl)cc1)CC(=O)NO)C(N)=O [CT-1746]
inhibition of overall collagen degradation by LOX cells (words) [5]: inhibited the overall collagen degradation by LOX cells in a dose dependent manner; also recorded: strongest inhibitory effect | Ki [8]: 122 nM

DMWERVSR
inhibition of seprase [1]: potent inhibitors | activity in inhibiting seprase prolyl dipeptidase compared with other inhibitors ([1]; FIG. 1A): more active than DLDYLSKF | inhibition of the prolyl dipeptidase activity of seprase ([1]; FIG. 1A): inhibit

CC[C@H](C)[C@H](N)C(=O)N1CCC[C@H]1C(=O)NOC(=O)c1ccc([N+](=O)[O-])cc1 [H-Ile-Pro-NHO-PNB]
inhibition of overall collagen degradation by LOX cells (words) [5]: inhibited the overall collagen degradation by LOX cells in a dose dependent manner | inhibition of overall collagen degradation by LOX cells (words) ([5]; listed as H-Ile-Pro-NHO-pNB): weak | inhibition of the gelatinolytic activity of seprase [2]: did not inhibit | inhibition of growth in ascites and on peritoneum ([9]; i.p. human ovarian tumor cells, 8 weeks, equimolecular amounts): 50% | block of degradation and ingestion of collagen film [10]: 50%

REMSDWRV
inhibition of overall collagen degradation by LOX cells (words) [5]: did not | inhibitory effect relative to DMWERVSR ([1]; % of the effect of DMWERVSR, FIG. 1A): less than 10%

CSCC[C@@H]1NC(=O)[C@H](CC(=O)O)NC(=O)[C@@H](N)CSSC[C@@H](C(=O)O)NC(=O)[C@H](CCCNC(=N)N)NC(=O)[C@H](CO)NC(=O)[C@H](C(C)C)NC(=O)[C@H](CCCNC(=N)N)NC(=O)[C@H](CCC(=O)O)NC(=O)[C@H](Cc2c[nH]c3ccccc23)NC1=O (H-CDMWERVSRC-OH; disulfide 1-10 (inferred); N-terminus and C-terminus assumed)
increase of catalytic Km value [1]: 5 times | inhibition at 100 µM ([1]; read-out: inhibition of seprase prolyl dipeptidase activity): > 60% | inhibition of growth in ascites and on peritoneum ([9]; mouse, in vivo, ip): more than 90% | toxicity to cells [11]: not toxic or lethal to cells

GGAGDMWERVSRG
binding to LOX cells [3]: strong binding | binding to SKMEL-28 cells [4]: did not bind

— US7374898B2, “Peptide inhibitors against seprase” (The Research Foundation of State University of New York, priority 2004, dated 2008)
